Entries after “also recorded” stand apart in the source; their conditions may differ.
Assays:
[1] = test system: FGR5; assay: FGR5 effects (specificity)
[2] = test system: ANIT-induced cholestatic rats; assay: ANIT-induced cholestasis rat model; format: in vivo, Sprague-Dawley (SD) rats
Protocol: Experimental protocols were approved by the local Animal Care and Use Committee and were in compliance with Animal Welfare Act regulations and US regulation (Guide for the Care and Use of Laboratory Animals). […] . The tropifexor-treated rats were sacrificed at 1 and 7 h (n=3/time point) and OCA-treated rats were sacrificed at 1, 3, and 7 h (n=3/time point) after the final dose on day 14 for analysis of target gene expression and serum biomarkers. […] .

[3] = test system: NASH mice; assay: Diet-induced (AMLN diet) insulin-resistant NASH mouse model; format: in vivo, C57B16 mice
From the text: A separate model for diet-induced NASH was developed as described by Trevaskis et al. Male C57B16 mice aged […] were maintained on a high fat (40% kcal; Primex), high fructose (22% by weight), and high cholesterol (2% by weight) diet (Research Diets Inc., New Brunswick, N.J. cat. no. D09100301) for 26 weeks to induce NASH. Control animals received low-fat diet (10% kcal) with no fructose or cholesterol (Research Diets, cat. no. D09100304). […] . Expression of collagen, type I, alpha 1 (Col1a1) and tissue inhibitor of metalloproteinase 1 (Timp1) genes was analyzed by real time quantitative PCR.

[4] = Exposure and exploratory exposure-response analysis in NASH patients; format: in vivo, human
[5] = test system: FGF19; assay: Pharmacodynamic marker FGF19 with increasing doses; format: in vivo; settings: increasing doses up to 3000 μg
[6] = test system: STAM mice; assay: STAM mouse model of NASH; settings: for NAFLD activity score (NAS): doses 0.1 and 0.3 mg/kg, qd orally weeks 9-12; for Sirius Red-positive areas (pericellular fibrosis): tropifexor 0.03, 0.1, 0.3 mg/kg; for liver triglycerides: tropifexor qd orally weeks 9-12
Protocol: Further experiments in the STAM model were performed: 2-day old male C57Bl/6J mice were injected with streptozotocin and placed on a high-fat diet (HFD) from weeks 4-12 (HFD-32; CLEA-Japan, Tokyo, Japan). […] Hematoxylin & eosin (H&E)-stained sections were evaluated for nonalcoholic fatty liver disease (NAFLD) activity score (NAS) according to previously defined criteria.
Liver sections were fixed in 4% paraformaldehyde for 48 h and shipped for histopathological analysis.

[7] = test system: dogs; assay: Oral gavage toxicity studies in dogs for up to 39 weeks
[8] = test system: NASH subjects; settings: FLINT trial; placebo-treated patients 6%; cited from earlier work

O=C(O)c1cc(F)c2nc(N3C4CC[C@H]3C[C@H](OCc3c(-c5ccccc5OC(F)(F)F)noc3C3CC3)C4)sc2c1 [tropifexor, 2-[(1R,3r,5S)-3-({5-cyclopropyl-3-[2-(trifluoromethoxy)phenyl]-1,2-oxazol-4-yl}methoxy)-8-azabicyclo[3.2.1]octan-8-yl]-4-fluoro-1,3-benzothiazole-6-carboxylic acid]
FGR5 effects [1]: no FGR5 effects
quantitation of collagen deposition (fibrosis) ([2]; FIG. 1D, vs vehicle-treated ANIT livers): significantly decreased
serum biochemistry parameters, liver damage, and fibrosis ([2]; FIG. 1 legend): improves
collagen deposition and liver fibrosis ([2]; chronic ANIT treatment, FIG. 1C): highly reduced
AST, ALT, total BAs, total bilirubin, and GGT levels ([2]; doses as low as 0.3 mg/kg, oral qd 5 days, vs vehicle-treated ANIT rats): marked reduction
reduction of cholestatic disease markers, comparison with OCA ([2]; rat, in vivo): more effective than OCA
liver histology: necrosis of the bile duct epithelium, bile duct hyperplasia, inflammatory cell infiltrates ([2]; vs vehicle-treated cholestatic rats, 0.03, 0.3, 1 mg/kg): dose-dependent improvement
hepatic crown-like structures ([3]; mid- and high dose tropifexor): completely eliminated
ALT and AST levels ([3]; mid-dose level): normalized
collagen deposition in liver (fibrosis), Trichrome staining ([3]; mouse, in vivo): strongly abrogates; also recorded: reverses
steatosis by quantification of liver triglycerides ([3]; mouse, in vivo): Dose-dependent reduction
mRNA levels of fibrogenic markers Col1a1 and TIMP1 ([3]; real time quantitative PCR): dramatically reduced
ALT and AST ([3]; relative to vehicle-treated controls, 4 weeks qd orally): dose-dependent reduction
liver inflammation, steatosis, and fibrosis ([3]; therapeutic mode): resolved
predicted exposure in NASH patients ([4]; 200 μg daily): approximately 80 ng·hr/ml
exposure level in NASH patients ([4]; at 200 μg): 80 ng·h/mL
pharmacodynamic marker FGF19 [5]: continues to rise
Plasma cholesterol levels ([6]; FIG. 2 legend): significantly reduced
NAFLD activity score (NAS) [6]: significantly reduced
NAFLD activity score (NAS) ([6]; listed as LJN452): significant decrease
fibrosis area in comparison with baseline group ([6]; mouse, in vivo): decreased
resolution of the NASH phenotype, comparison with OCA ([6]; mouse, in vivo): more effectively than OCA
Sirius Red-positive areas (pericellular fibrosis) [6]: significantly reduced
Sirius Red-positive areas (pericellular fibrosis) ([6]; listed as Tropifexor): statistically significant dose-dependent reduction
liver triglycerides [6]: significantly reduced
liver triglycerides ([6]; listed as LJN452): reduction
Mean AUC0-24 h at which hepatocellular hypertrophy was adverse ([7]; females): 507 ng·h/mL
Mean AUC0-24 h at which hepatocellular hypertrophy was adverse ([7]; males): 898 ng·h/mL

CC[C@H]1[C@@H](O)[C@@H]2[C@H](CC[C@]3(C)[C@@H]([C@H](C)CCC(=O)O)CC[C@@H]23)[C@@]2(C)CC[C@@H](O)C[C@@H]12 [OCA, 6α-ethyl-chenodeoxycholic acid]
patients with pruritus [8]: 23%
